Test results as given in article PMC10811509 (Advanced Science, 2023).
pKd: −log10 of the molar value. No end group written: not given here.

How the values were obtained:
Aβ40 = molecular target: T1, Aβ40 (Homo sapiens, UniProt P05067); test: ITC, APP‐C31 binding to Aβ40; conditions: read-out: binding affinity (Kd)
T1 construct: purchased Peptide Institute, Inc. (Osaka, Japan) or Anaspec (Fremont, CA, USA)
Experimental: Titration experiments composed of 28 injections were conducted. The injection volume was 2 µL for the first injection to minimize effects of bubbles and 10 µL for the remaining injections. […] The initial delay was 1800 s and the reference power was 10 µcal s^−1. […] The binding isotherms after baseline correction were fitted to the one set of sites binding model incorporated in the MicroCal Origin 7.0 software.^[ [84] ^]
Figure S10. Interaction of Ab40 with APP-C31 monitored by ITC. The ITC thermogram (upper panel) and binding isotherm (lower panel) were obtained upon titration of APP-C31 into Ab40. The Kd value was calculated from three independent measurements. Conditions: [Ab40] = 30 µM; [APP-C31] = 600 µM; 20

SH‐SY5Y cells [1] = test: Cell viability after microinjection
Experimental: (§1) Cell survival measurements were described in detail in the experimental section. […] White arrows indicate apoptotic cells microinjected with peptide samples. […] Scale bar = 100 µm.
Experiments were performed at least in triplicate.

SH‐SY5Y cells [2] = test: Annexin V staining (apoptosis) after microinjection; conditions: 24 h; for Pearson's coefficient (r), annexin V / Texas Red‐labeled dextran: n = 3–5
Experimental: as §1
After 24 h incubation, the cells were washed with annexin‐binding buffer and stained with annexin V‐Alexa Fluor 488 for detecting apoptosis following the manufacturer's instruction (FITC Annexin V/Dead Cell Apoptosis Kit; V13241, Invitrogen). Fluorescent responses of annexin V and Texas Red‐labeled dextran were identified by a microscope with a GFP light cube [excitation at 470 (±22) nm and emission at 525 (±50) nm] and a Cy5 light cube [excitation at 628 (±40) nm and emission at 685 (±40) nm], respectively. At least five randomly selected fields per conditions were captured with a microscope. Pearson's correlation coefficient for the indication of co‐localization was calculated with the Coloc2 plugin in Fiji software.^[ [79] ^]

[3] = test system: human neurons differentiated from H9 human embryonic stem cells; test: Neurite outgrowth in human neurons; type: cell-based
Experimental: Human neurons were differentiated from neural progenitor cells (NPCs), which are derived from human embryonic stem cells (hESCs), WA09 (also known as H9). hESCs were maintained on inactivated mouse embryonic fibroblasts (MEFs) in hESC‐media comprising DMEM/F12 (GIBCO) with MEM non‐essential amino acids (MEM NEAA; GIBCO), sodium bicarbonate (14 mM; Sigma‐Aldrich), L‐glutamine (1 mM; Sigma‐Aldrich), β‐mercaptoethanol (100 µM; Merck Millipore, Billerica, MA, USA), knockout serum replacement (20% v/v; GIBCO), and bFGF (10 ng mL^−1; R&D systems, McKinley Place, MN, USA). MEFs were collected from E13.5 CrljOri:CD1 (ICR) mice (Orientbio, Seongnam, Republic of Korea) and inactivated with 10 µg mL^−1 of mitomycin C (AG Scientific, San Diego, CA, USA) in 2 h. hESC colonies were dissociated with Collagenase IV and plated onto Petri dishes in hESC‐media to form embryoid bodies (EBs). […] The treatment was continued for a week, followed by plating onto growth factor reduced matrigel (BD biosciences)‐coated dishes in DMEM/F12 + glutamax (GIBCO) with N2 and B27 supplements (N2/B27 media) and laminin (1 mg mL^−1; GIBCO). […]
Human NPCs were differentiated into neurons for 2 d and the media was replaced by fresh media. […] The neurite of a neuron measured from the soma to the tip was analyzed using Neuron J program of Fiji software.^[ [81] ^]

[4] = test system: Aβ in hippocampi of C57BL/6J mice; test: Immunohistochemistry of hippocampus after stereotaxic peptide injection, Aβ (6E10, thioflavin‐S); type: in vivo, mouse; conditions: hippocampal injection of Aβ40 (100 µM) and APP‐C31 (200 µM), 1 µL; 10 days; n = 3
[5] = test system: Iba1‐positive microglial cells in hippocampi of C57BL/6J mice; test: Immunohistochemistry of hippocampus after stereotaxic peptide injection, microglia (Iba1); type: in vivo, mouse; conditions: hippocampal injection of Aβ40 (100 µM) and APP‐C31 (200 µM), 1 µL; 10 days; n = 5
Experimental: 15 neurons were analyzed per each condition. […] Scale bar = 100 µm. […] Scale bar = 200 µm. f) Quantification results of the 6E10‐positive area and Iba1‐positive cells, calculated based on the fluorescence signals.
All experiments were performed in accordance with approved animal protocols and guidelines established by Korea Research Institute of Bioscience and Biotechnology (KRIBB). C57BL/6J (11 weeks old; 30 g) were anesthetized by the intraperitoneal injection of tribromoethanol (320 mg kg^−1, i.p.) and positioned in a stereotaxic apparatus. […] All infusions were given using a Hamilton syringe equipped with a 26‐gauge beveled needle and attached to a Nanojet stereotaxic syringe pump (Chemyx, Inc., TX, USA). Infusions were delivered at a rate of 0.2 µL min^−1. […]
Mice were perfused with phosphate‐buffered saline (GIBCO) and 4% paraformaldehyde (PFA) solution, and then the brains were post‐fixed with 4% PFA overnight and dehydrated with 30% sucrose solution. […] Immunofluorescence staining was performed as previously described^[ [83] ^] using anti‐Aβ antibody (6E10; 1:1,000), anti‐APP antibody (Y188; 1:500), anti‐Iba1 antibody (1:1,000, Wako Life Sciences Inc., Japan), an appropriate fluorescence‐conjugated secondary antibody, and Hoechst 33 258 (1:10,000; Life Technologies, CA, USA) for counterstaining. […]

[6] = APP‐C31 (10 µM) or Aβ40 (10 µM) alone

T1 sequence (P05067 672-711): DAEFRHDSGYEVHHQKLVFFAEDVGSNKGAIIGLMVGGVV

AAVTPEERHLSKMQQNGYENPTYKFFEQMQN [APP‐C31]
pKd (Aβ40): 3.82 | cell viability (SH‐SY5Y cells [1]; 10 µM): 86% | cell viability (SH‐SY5Y cells [1]; Cu(II)–Aβ40 (10 µM) with APP‐C31 (10 µM), 24 h, n = 3–5): 78% | green fluorescence of annexin V (SH‐SY5Y cells [2]; [6]): did not significantly show the green fluorescence of annexin V | Pearson's coefficient (r), annexin V / Texas Red‐labeled dextran (SH‐SY5Y cells [2]; [6]): ≈ 0.2 | green fluorescence of annexin V (SH‐SY5Y cells [2]; both APP‐C31 (10 µM) and Aβ40 (10 µM)): intense green fluorescence of annexin V | Pearson's coefficient (r), annexin V / Texas Red‐labeled dextran (SH‐SY5Y cells [2]; both APP‐C31 (10 µM) and Aβ40 (10 µM), **p < 0.01): ≈ 0.6 | averaged neurite length ([3]; Aβ40 20 µM with stoichiometric or suprastoichiometric APP‐C31, 24 h): further decreased | neurite morphology ([3]; Aβ40 20 µM with various concentrations of APP‐C31, 72 h): fragmentation of neurites | 6E10‐positive area vs Aβ40 alone [4]: significantly enhanced | number of Iba1‐positive microglial cells vs Aβ40 only [5]: 3.7 fold
